Measurements as given in US7875287B2, “Tc-labeled arylpiperazine derivatives for imaging serotonin receptor” (Korea Atomic Energy Research Institute, priority 2005, dated 2011).

How the values were obtained:
[1] = Static image scan of rabbits after intravenous injection; assay type: in vivo, male New Zealand white rabbits; settings: rabbit, image 5 min after injection
Method: Static image of male New Zealand white rabbits scanned at 5 and 10 min.
At an image of 5 min. after the injection, high activity was found in the liver. A trace amount of ^99mTc-8-[3-({2-[4-(2-methoxy-phenyl)-piperazin-1-yl]-ethyl}-pyridin-2-yl-amino)-propyl]-[1,2,5,8]dithiadiazecan-6-one (25) seemed to be remained in the brain.

[2] = Stability of 99mTc-complex by reversed phase HPLC; assay type: physicochemical; settings: for approximately 4 hours; reaction mixture, RP-HPLC
Method: Radiochemical purity of ^99mTc-complex (25) was determined by HPLC using a C-18 reverse-phase column as a stationary phase and a water/ACN as a mobile phase, while maintaining a flow rate of 1 ml/min.
The complex is stable (>90%) for approximately 4 hours.

[3] = Paper electrophoresis in 0.1 M phosphate buffer (pH7.4); assay type: physicochemical; settings: aqueous solution, 0.1 M phosphate buffer pH7.4, 45 min, 400 V (20 V/cm)
Method: Filtered preparation was applied on a paper eluted with 0.1 M phosphate buffer (pH7.4) for 45 min. at a 400 V (20 V/cm).

activity in the liver on image [1]: high activity
amount remained in the brain on image [1]: trace amount
stability of the complex [2]: > 90%
charge observed in paper electrophoresis [3]: neutral charge
Substance: ^99mTc-8-[3-({2-[4-(2-methoxy-phenyl)-piperazin-1-yl]-ethyl}-pyridin-2-yl-amino)-propyl]-[1,2,5,8]dithiadiazecan-6-one [Compound 25]
